Data from patent US5663344A, “Method for the synthesis of huperzine A and analogs thereof and compounds useful therein” (Mayo Foundation for Medical Education and Research, priority 1994, dated 1997).

Target: T1, acetylcholinesterase (Rattus norvegicus, UniProt P37136)
T1 construct: synaptosome-rich fraction containing endogenous acetylcholinesterase enzyme; from tissue; host or cells: rat cerebral cortex, synaptosome-rich fraction (Whittaker's P2 fraction: synaptosomes and mitochondria)
T1 sequence (P37136 32-614): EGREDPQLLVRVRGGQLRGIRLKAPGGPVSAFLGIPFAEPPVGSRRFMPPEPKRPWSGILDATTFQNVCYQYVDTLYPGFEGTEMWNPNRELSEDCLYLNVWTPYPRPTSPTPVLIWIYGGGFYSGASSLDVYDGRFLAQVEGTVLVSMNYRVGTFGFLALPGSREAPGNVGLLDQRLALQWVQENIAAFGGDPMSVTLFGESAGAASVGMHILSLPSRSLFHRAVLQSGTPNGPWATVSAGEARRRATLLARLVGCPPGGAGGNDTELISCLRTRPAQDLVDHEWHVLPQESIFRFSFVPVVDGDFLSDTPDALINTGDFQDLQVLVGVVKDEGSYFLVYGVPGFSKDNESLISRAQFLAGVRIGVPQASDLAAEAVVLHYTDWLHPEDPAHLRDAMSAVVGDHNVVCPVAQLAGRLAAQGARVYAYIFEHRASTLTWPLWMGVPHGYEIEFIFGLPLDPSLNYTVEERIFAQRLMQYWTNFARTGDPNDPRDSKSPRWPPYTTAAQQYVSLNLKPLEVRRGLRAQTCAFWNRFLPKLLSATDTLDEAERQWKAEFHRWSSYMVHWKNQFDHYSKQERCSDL
Experiment: Inhibition of acetylcholinesterase in rat cortex synaptosome-rich fraction (hydrolysis of labelled acetylcholine)
Assay type: biochemical
Method: Rats were killed by decapitation and the brains were rapidly extirpated. The cortex was dissected out on ice according to the method of Glowinski and Iversen. […] Homogenates were centrifuged at 1000× g for 10 minutes to remove cell nuclei and heavy debris. […] A portion of this synaptosome-rich fraction was added in triplicate to ice-cold pH 7.4 Krebs-Ringer medium.
Assay of acetylcholinesterase was carried out according to the method of Johnson and Russell. See C. […] Acetylcholine labelled in the acetate moiety was enzymatically hydrolyzed by incubation for 10 minutes at room temperature in the presence of the above synaptosome-rich fraction containing endogenous acetylcholinesterase enzyme. The reaction was terminated by addition of a "stopping mixture" containing chloroacetic acid (1.0M), sodium hydroxide (0.5M) and sodium cloride (2.0M) to the reaction vial. Toluene-based scintillation fluid was added to the vial, to extract the released labelled acetate into the organic phase. […] Thus, the sample can be counted directly in the same reaction vial, in which the hydrolysis of sample by acetylcholinesterase has occurred.
Inhibition of cholinesterase activity was estimated, in triplicate, in the presence of a wide range of concentrations (10^-9 to 10^-3 M).

CCC=C1C2C=C(C)CC1(N)c1ccc(=O)[nH]c1C2 (stereo not drawn) [1-carbon Analog]
inhibition of the cholinesterase enzyme (in words) (compared with huperzine A): inhibited the cholinesterase enzyme, but to a lesser extent than huperzine A
IC50 (read-out: IC50 (extent of cholinesterase enzyme inhibition), rat cortex synaptosome-rich fraction, 10 min, room temperature, triplicate, 10^-9 to 10^-3 M): 100 µM
IC50 /IC50 of Huperzine A (relative to synthesized huperzine A, the smaller this number, the more potent the compound): 166.6
